These molecules were tested on IKKε-mediated phosphorylation of IRF3 (assay: ELISA for in-situ phosphorylation of IRF3 (phospho-Ser396) in HEK293T cells cotransfected with IRF3 and IKKε). Details: Homo sapiens, HEK-293T, 20 h, HEK293T cells, 20 hours; range given from about 1 μM to about 250 nM; read-out: IC50, in-situ IKKε-mediated phosphorylation of IRF3.
Assay type: cell-based
Protocol: HEK293T cells were cotransfected in a 10-cm dish with IRF3 and IKKε expression plasmids using Lipofectamine 2000 (Invitrogen, Carlsbad, Calif.). The following day, cells were replated at 20,000 per well in 96-well plates and treated with test compounds (compounds according to Formulae I and/or II) for 20 hours. Cell lysates were prepared and analyzed using an ELISA for phospho-Ser396 (anti-IRF3 capture antibody, Santa Cruz Biotechnology, Inc., Santa Cruz, Calif.; anti-p-Ser396 IRF3 detection antibody, Cell Signaling, Danvers, Mass.). pIRF3 levels in compound treated cells were normalized to DMSO treated cells (no compound). Cell viability was assayed in a parallel set of plates to monitor cytotoxic effects of the test compounds (CellTiter-Glo, Promega, Inc., Madison, Wis.). TBK1 activity was tested by Western blotting using a phospho-specific IRF7 antibody. Similar to above, HEK293T cells were transfected with IRF7 and TBK1 expression plasmids. Cells were seeded in 12-well plates at 150,000 per well and treated overnight with test compounds. Protein lysates were prepared and processed for Western blotting followed by detection using a phosphor-Ser477/Ser479 IRF7 antibody (BD Biosciences, San Jose, Calif.)

IC50	Compound
250 to 1000 nM	COCCNCc1ccc(Nc2nccc(-c3ccc(OC4CCOCC4)c(C#N)c3)n2)cn1 [Example Compound 50, 5-{2-[(6-{[(2-Methoxyethyl)amino]methyl}pyridin-3-yl)amino]pyrimidin-4-yl}-2-(tetrahydro-2H-pyran-4-yloxy)benzonitrile]
250 to 1000 nM	CN1CCN(c2ccc(Nc3nccc(-c4ccc(OC5CCOCC5)c(C#N)c4)n3)nn2)CC1 [Example Compound 85, 5-(2-{[6-(4-Methylpiperazin-1-yl)pyridazin-3-yl]amino}pyrimidin-4-yl)-2-(tetrahydro-2H-pyran-4-yloxy)benzonitrile]
250 to 1000 nM	COc1cc(-c2ccnc(Nc3ccc(CN4CCC4)nc3)n2)cc(C#N)c1OC1CCOCC1 [Example Compound 115, 5-(2-{[6-(Azetidin-1-ylmethyl)pyridin-3-yl]amino}pyrimidin-4-yl)-3-methoxy-2-(tetrahydro-2H-pyran-4-yloxy)benzonitrile]
250 to 1000 nM	Cc1ccc(Nc2nccc(-c3ccc(O[C@@H]4CCN(C(=O)CO)C4)c(C#N)c3)n2)cn1 [Example Compound 118, 2-{[(3R)-1-(Hydroxyacetyl)pyrrolidin-3-yl]oxy}-5-{2-[(6-methylpyridin-3-yl)amino]pyrimidin-4-yl}benzonitrile]
250 to 1000 nM	N#Cc1cc(-c2ccnc(Nc3ccnc(C(F)(F)F)c3)n2)ccc1O[C@@H]1CCN(C(=O)CO)C1 [Example Compound 122, 2-{[(3R)-1-(Hydroxyacetyl)pyrrolidin-3-yl]oxy}-5-(2-{[2-(trifluoromethyl)pyridin-4-yl]amino}pyrimidin-4-yl)benzonitrile]

Same assay, conditions: Homo sapiens, HEK-293T, 20 h, HEK293T cells, 20 hours; read-out: IC50, in-situ IKKε-mediated phosphorylation of IRF3

Compound	IC50
COC1CN(C(=O)c2ccc(Nc3nccc(-c4ccc(OC5CCOCC5)c(C#N)c4)n3)cn2)C1 [Example Compound 31, 5-[2-({6-[(3-Methoxyazetidin-1-yl)carbonyl]pyridin-3-yl}amino)pyrimidin-4-yl]-2-(tetrahydro-2H-pyran-4-yloxy)benzonitrile]	100 to 250 nM
Cc1ccc(Nc2nccc(-c3ccc(OCC4CC4)c(C#N)c3)n2)cn1 [Example Compound 112, 2-(Cyclopropylmethoxy)-5-{2-[(6-methylpyridin-3-yl)amino]pyrimidin-4-yl}benzonitrile]	100 to 250 nM
COc1cc(-c2ccnc(Nc3ccc(CN4CC(OC)C4)nc3)n2)cc(C#N)c1OC1CCOCC1 [Example Compound 116, 3-Methoxy-5-[2-({6-[(3-methoxyazetidin-1-yl)methyl]pyridin-3-yl}amino)pyrimidin-4-yl]-2-(tetrahydro-2H-pyran-4-yloxy)benzonitrile]	100 to 250 nM
Cc1ccc(Nc2nccc(-c3ccc(OC4CCN(C(=O)[C@@H](C)O)CC4)c(C#N)c3)n2)cn1 [Example Compound 129, 2-({1-[(2R)-2-Hydroxypropanoyl]piperidin-4-yl}oxy)-5-{2-[(6-methylpyridin-3-yl)amino]pyrimidin-4-yl}benzonitrile]	1000 to 5000 nM
N#Cc1cc(-c2ccnc(Nc3ccc(C(=O)N4CCN(CCO)CC4)s3)n2)ccc1OC1CCOCC1 [Example Compound 163, 5-{2-[(5-{[4-(2-Hydroxyethyl)piperazin-1-yl]carbonyl}thiophen-2-yl)amino]pyrimidin-4-yl}-2-(tetrahydro-2H-pyran-4-yloxy)benzonitrile]	100 to 250 nM

Second part, the molecule after the results:

IC50	Compound
100 to 250 nM	N#Cc1cc(-c2ccnc(Nc3ccc(N4CCOCC4)nc3)n2)ccc1OC1CCOCC1 [Example Compound 6, 5-(2-{[6-(Morpholin-4-yl)pyridin-3-yl]amino}pyrimidin-4-yl)-2-(tetrahydro-2H-pyran-4-yloxy)benzonitrile]
< 100 nM	Cc1nccn1-c1ccc(Nc2nccc(-c3ccc(OC4CCOCC4)c(C#N)c3)n2)cn1 [Example Compound 73, 5-(2-{[6-(2-Methyl-1H-imidazol-1-yl)pyridin-3-yl]amino}pyrimidin-4-yl)-2-(tetrahydro-2H-pyran-4-yloxy)benzonitrile]
1000 to 5000 nM	Cn1cc(Nc2nccc(-c3ccc(OC4CCOCC4)c(C#N)c3)n2)cn1 [Example Compound 97, 5-{2-[(1-Methyl-1H-pyrazol-4-yl)amino]pyrimidin-4-yl}-2-(tetrahydro-2H-pyran-4-yloxy)benzonitrile]
< 100 nM	CN1CCN(C(=O)c2ncc(Nc3nccc(-c4ccc(OC5CCOCC5)c(C#N)c4)n3)n2C)CC1 [Example Compound 103, 5-[2-({1-Methyl-2-[(4-methylpiperazin-1-yl)carbonyl]-1H-imidazol-5-yl}amino)pyrimidin-4-yl]-2-(tetrahydro-2H-pyran-4-yloxy)benzonitrile]
1000 to 5000 nM	COC1CN(C(=O)Cc2csc(Nc3nccc(-c4ccc(OC5CCOCC5)c(C#N)c4)n3)n2)C1 [Example Compound 105, 5-[2-({4-[2-(3-Methoxyazetidin-1-yl)-2-oxoethyl]-1,3-thiazol-2-yl}amino)pyrimidin-4-yl]-2-(tetrahydro-2H-pyran-4-yloxy)benzonitrile]
100 to 250 nM	CN(C)c1ccc(Nc2nccc(-c3ccc(O[C@@H]4CCN(C(=O)CO)C4)c(C#N)c3)n2)cn1 [Example Compound 124, 5-(2-{[6-(Dimethylamino)pyridin-3-yl]amino}pyrimidin-4-yl)-2-{[1-(hydroxyacetyl)pyrrolidin-3-yl]oxy}benzonitrile]
1000 to 5000 nM	Cc1ccc(Nc2nccc(-c3ccc(NC(=O)C(C)C)c(C#N)c3)n2)cn1 [Example Compound 136, N-(2-Cyano-4-{2-[(6-methylpyridin-3-yl)amino]pyrimidin-4-yl}phenyl)-2-methylpropanamide]
< 100 nM	N#Cc1cc(-c2ccnc(Nc3ccc(C4CC4)nc3)n2)ccc1NC(=O)C1CC1 [Example Compound 140, N-(2-Cyano-4-{2-[(6-cyclopropylpyridin-3-yl)amino]pyrimidin-4-yl}phenyl)cyclopropanecarboxamide]
100 to 250 nM	CN(C)c1ccc(Nc2nccc(-c3ccc(OC4CCOCC4)c(C#N)c3)n2)cn1 [Example Compound 152, 5-(2-{[6-(Dimethylamino)pyridin-3-yl]amino}pyrimidin-4-yl)-2-(tetrahydro-2H-pyran-4-yloxy)benzonitrile]
100 to 250 nM	CCN(CC)c1ccc(Nc2nccc(-c3ccc(OC4CCOCC4)c(C#N)c3)n2)cn1 [Example Compound 153, 5-(2-{[6-(Diethylamino)pyridin-3-yl]amino}pyrimidin-4-yl)-2-(tetrahydro-2H-pyran-4-yloxy)benzonitrile]

These molecules were tested against T1, IKKε (Homo sapiens, UniProt Q14164) (assay: In-vitro IKKε kinase assay (radiolabelled ATP, filterplate)). Details: "sensitized" assay; read-out: IC50, inhibition of the kinase activity of IKKε.
T1 construct: His-tag (in-house Sf9 preparation) or GST-tag (purchased Invitrogen preparation); these are alternatives, not both on one protein; host or cells: Sf9 cells
T1 sequence (Q14164 1-716): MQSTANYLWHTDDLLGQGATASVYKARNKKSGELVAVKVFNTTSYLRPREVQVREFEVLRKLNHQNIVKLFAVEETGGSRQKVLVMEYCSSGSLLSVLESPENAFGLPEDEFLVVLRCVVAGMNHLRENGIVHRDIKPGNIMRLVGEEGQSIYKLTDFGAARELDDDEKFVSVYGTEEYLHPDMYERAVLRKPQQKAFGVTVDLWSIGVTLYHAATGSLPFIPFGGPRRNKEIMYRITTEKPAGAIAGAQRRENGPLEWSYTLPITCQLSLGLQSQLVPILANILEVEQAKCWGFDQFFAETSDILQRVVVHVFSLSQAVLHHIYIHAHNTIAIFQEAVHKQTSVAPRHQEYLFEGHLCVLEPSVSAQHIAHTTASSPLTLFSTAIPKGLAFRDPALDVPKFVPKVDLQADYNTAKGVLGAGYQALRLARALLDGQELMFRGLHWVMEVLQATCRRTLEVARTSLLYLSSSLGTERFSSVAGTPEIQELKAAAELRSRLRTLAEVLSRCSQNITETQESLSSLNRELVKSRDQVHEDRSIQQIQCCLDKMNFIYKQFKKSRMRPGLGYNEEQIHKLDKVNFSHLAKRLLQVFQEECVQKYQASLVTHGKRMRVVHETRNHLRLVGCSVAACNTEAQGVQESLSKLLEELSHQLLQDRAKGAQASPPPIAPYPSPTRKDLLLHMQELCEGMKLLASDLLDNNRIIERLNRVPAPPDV
Assay type: biochemical
Protocol: IKKε enzyme was produced as a His-tag fusion in Sf9 cells or purchased as a GST-tag fusion (Invitrogen, Carlsbad, Calif.). TBK1 enzyme was produced as a His-tag fusion in Sf9 cells. Kinase reactions were carried out in reaction buffer using myelin basic protein (Millipore, Ballerica, Mass.), casein or dephosphorylated casein (Sigma, St. Louis, Mo.) as substrate at an ATP concentration equal to twice the Km,ATP value for each enzyme, corresponding to 32 μM ATP for IKKε and 60 μM ATP for TBK1. Radiolabelled [γ^33]ATP (PerkinElmer, Waltham, Mass.) in the amount of […] (IKKe, “normal”) or 0.7 μCi (IKKε, “sensitized”) or 1.25 μCi (TBK1) was added to each assay. Final enzyme concentrations were 0.1 or 0.015 μg/ml (IKKε) and 0.1 or 0.02 μg/ml (TBK1) for the “normal” and “sensitized” assay, respectively, and “sensitized” assays were conducted using only dephosphorylated casein as substrate. Test compounds (or DMSO solvent as a control) were added prior to initiation of the reactions. Reactions were terminated after 30-45 minutes by adding 3% phosphoric acid. Terminated reactions were transferred to P-81 cellulose phosphate filterplates (Whatman, Inc., Piscataway, N.J.) and washed with 1% phosphoric acid on a vacuum apparatus. After air drying, scintillant (PerkinElmer, Waltham, Mass.) was added and the plates were read on a PerkinElmer TopCount NXT instrument. Counts were normalized to DMSO controls after background subtraction.

Compound	IC50
COCCNc1cc(Nc2nccc(-c3ccc(OCC4CC4)c(C#N)c3)n2)ccn1 [Example Compound 245, 2-(Cyclopropylmethoxy)-5-[2-({2-[(2-methoxyethyl)amino]pyridin-4-yl}amino)pyrimidin-4-yl]benzonitrile]	< 5 nM
COC1CN(c2cc(Nc3nccc(-c4ccc(OCC5CC5)c(C#N)c4)n3)ccn2)C1 [Example Compound 248, 2-(Cyclopropylmethoxy)-5-(2-{[2-(3-methoxyazetidin-1-yl)pyridin-4-yl]amino}pyrimidin-4-yl)benzonitrile]	< 5 nM

— patent publication US20140288044A1, “COMPOSITIONS AND THERAPEUTIC USES OF IKK-RELATED KINASE EPSILON AND TANKBINDING KINASE 1 INHIBITORS” (Alzheimer's Institute of America, Inc., priority 2011, published 2014)
